Reference: patent US20240425502A1, “BICYCLIC HETEROAROMATIC COMPOUNDS AND THEIR USE AS PEST CONTROL AGENTS” (PI INDUSTRIES LTD., priority 2021, published 2024)

Columns and labels:
[1] = test system: Nilaparvata lugens; test: Nilaparvata lugens seedling dip test (paddy seedlings, third instar nymphs); assay type: in vivo; details: 72 h after release, dead and moribund combined, compared to untreated control, read-out: percent mortality
[2] = test system: Myzus persicae; test: Myzus persicae leaf dip test (capsicum leaves, third instar nymphs); assay type: in vivo; details: foliar, 72 h after release, dead and moribund combined, compared to untreated control, read-out: percent mortality

Row | Compound | mortality at 300 ppm [1] [%] | mortality at 300 ppm [2] [%]
1 | O=c1nc2n(Cc3cnc(Cl)s3)cccc-2c(=O)n1-c1ccccc1 [Compound 62, 8-((2-chlorothiazol-5-yl)methyl)-3-phenylpyrido[2,3-d]pyrimidine-2,4(3H,8H)-dione] | ≥ 70 | 
2 | COc1cccc(-n2c(=O)nc3n(Cc4cnc(Cl)s4)cccc-3c2=O)c1 [Compound 72, 8-((2-chlorothiazol-5-yl)methyl)-3-(3-methoxyphenyl)pyrido[2,3-d]pyrimidine-2,4(3H,8H)-dione] | ≥ 70 | 
3 | COc1ccccc1-n1c(=O)nc2n(Cc3cnc(Cl)s3)cccc-2c1=O [Compound 73, 8-((2-chlorothiazol-5-yl)methyl)-3-(2-methoxyphenyl)pyrido[2,3-d]pyrimidine-2,4(3H,8H)-dione] | ≥ 70 | ≥ 70
4 | Cc1cccc(-n2c(=O)nc3n(Cc4cnc(Cl)nc4)cccc-3c2=O)c1 [Compound 128, 8-((2-chloropyrimidin-5-yl)methyl)-3-(m-tolyl)pyrido[2,3-d]pyrimidine-2,4(3H,8H)-dione] | ≥ 70 | 
5 | O=c1nc2n(Cc3cnc(Cl)s3)cccc-2c(=O)n1-c1cc(F)cc(F)c1 [Compound 141, 8-((2-chlorothiazol-5-yl)methyl)-3-(3,5-difluorophenyl)pyrido[2,3-d]pyrimidine-2,4(3H,8H)-dione] | ≥ 70 | ≥ 70
6 | O=c1nc2n(Cc3cnc(Cl)s3)cccc-2c(=O)n1-c1cccc(F)c1 [Compound 143, 8-((2-chlorothiazol-5-yl)methyl)-3-(3-fluorophenyl)pyrido[2,3-d]pyrimidine-2,4(3H,8H)-dione] | ≥ 70 | 
7 | O=c1nc2n(Cc3cnc(Cl)s3)cccc-2c(=O)n1-c1cccc(OC(F)F)c1 [Compound 151, 8-((2-chlorothiazol-5-yl)methyl)-3-(3-(difluoromethoxy)phenyl)pyrido[2,3-d]pyrimidine-2,4(3H,8H)-dione] | ≥ 70 | ≥ 70
8 | O=c1nc2n(Cc3cnc(Cl)s3)cccc-2c(=O)n1-c1ccc(F)cc1 [Compound 153, 8-((2-chlorothiazol-5-yl)methyl)-3-(4-fluorophenyl)pyrido[2,3-d]pyrimidine-2,4(3H,8H)-dione] | ≥ 70 | 
9 | O=c1nc2n(Cc3cnc(Cl)nc3)cccc-2c(=O)n1-c1ccc(OC(F)F)cc1 [Compound 160, 8-((2-chloropyrimidin-5-yl)methyl)-3-(4-(difluoromethoxy)phenyl)pyrido[2,3-d]pyrimidine-2,4(3H,8H)-dione] | ≥ 70 | ≥ 70
10 | O=c1nc2n(Cc3ccc(C(F)(F)F)nc3)cccc-2c(=O)n1-c1ccccc1F [Compound 162, 3-(2-fluorophenyl)-8-((6-(trifluoromethyl)pyridin-3-yl)methyl)pyrido[2,3-d]pyrimidine-2,4(3H,8H)-dione] | ≥ 70 | 
11 | O=c1nc2n(Cc3cnc(Cl)s3)cccc-2c(=O)n1-c1ccc(F)c(Cl)c1 [Compound 165, 3-(3-chloro-4-fluorophenyl)-8-((2-chlorothiazol-5-yl)methyl)pyrido[2,3-d]pyrimidine-2,4(3H,8H)-dione] | ≥ 70 | 
12 | O=c1nc2n(Cc3ccc(C(F)(F)F)nc3)cccc-2c(=O)n1-c1cccc(C(F)(F)F)c1 [Compound 172, 3-(3-(trifluoromethyl)phenyl)-8-((6-(trifluoromethyl)pyridin-3-yl)methyl)pyrido[2,3-d]pyrimidine-2,4(3H,8H)-dione] |  | ≥ 70
13 | O=c1nc2n(Cc3cnc(Cl)nc3)cccc-2c(=O)n1-c1ccsc1 [Compound 179, 8-((2-chloropyrimidin-5-yl)methyl)-3-(thiophen-3-yl)pyrido[2,3-d]pyrimidine-2,4(3H,8H)-dione] | ≥ 70 | ≥ 70
14 | O=c1nc2n(Cc3cnc(Cl)s3)cccc-2c(=O)n1-c1cccc(C(F)F)c1 [Compound 187, 8-((2-chlorothiazol-5-yl)methyl)-3-(3-(difluoromethyl)phenyl)pyrido[2,3-d]pyrimidine-2,4(3H,8H)-dione] | ≥ 70 | ≥ 70
15 | O=c1nc2n(Cc3cnc(Cl)s3)cccc-2c(=O)n1-c1ccc(Cl)cc1F [Compound 193, 3-(4-chloro-2-fluorophenyl)-8-((2-chlorothiazol-5-yl)methyl)pyrido[2,3-d]pyrimidine-2,4(3H,8H)-dione] | ≥ 70 | ≥ 70
16 | O=c1nc2n(Cc3ccc(Cl)nc3)cccc-2c(=O)n1-c1ccc(OC(F)(F)F)c(Cl)c1 [Compound 195, 3-(3-chloro-4-(trifluoromethoxy)phenyl)-8-((6-chloropyridin-3-yl)methyl)pyrido[2,3-d]pyrimidine-2,4(3H,8H)-dione] | ≥ 70 | ≥ 70
17 | O=c1nc2n(Cc3cnc(Cl)nc3)cccc-2c(=O)n1-c1cccc(C(F)F)c1 [Compound 203, 8-((2-chloropyrimidin-5-yl)methyl)-3-(3-(difluoromethyl)phenyl)pyrido[2,3-d]pyrimidine-2,4(3H,8H)-dione] | ≥ 70 | ≥ 70
18 | O=c1nc2n(Cc3cnc(Cl)nc3)cccc-2c(=O)n1-c1cccc(F)c1F [Compound 205, 8-((2-chloropyrimidin-5-yl)methyl)-3-(2,3-difluorophenyl)pyrido[2,3-d]pyrimidine-2,4(3H,8H)-dione] | ≥ 70 | ≥ 70
19 | O=c1nc2n(Cc3ccc(Cl)nc3)cccc-2c(=O)n1-c1cccc(OCC(F)(F)F)c1 [Compound 211, 8-((6-chloropyridin-3-yl)methyl)-3-(3-(2,2,2-trifluoroethoxy)phenyl)pyrido[2,3-d]pyrimidine-2,4(3H,8H)-dione] | ≥ 70 | ≥ 70
20 | O=c1nc2n(Cc3cnc(Cl)s3)cccc-2c(=O)n1-c1c(F)cccc1F [Compound 215, 8-((2-chlorothiazol-5-yl)methyl)-3-(2,6-difluorophenyl)pyrido[2,3-d]pyrimidine-2,4(3H,8H)-dione] | ≥ 70 | 
21 | O=c1nc2n(Cc3ccc(Cl)nc3)cccc-2c(=O)n1-c1ccc(Cl)c(C(F)(F)F)c1 [Compound 219, 3-(4-chloro-3-(trifluoromethyl)phenyl)-8-((6-chloropyridin-3-yl)methyl)pyrido[2,3-d]pyrimidine-2,4(3H,8H)-dione] | ≥ 70 | 
22 | O=c1nc2n(Cc3ccc(Cl)nc3)cccc-2c(=O)n1-c1ccc(F)c(C(F)(F)F)c1 [Compound 222, 8-((6-chloropyridin-3-yl)methyl)-3-(4-fluoro-3-(trifluoromethyl)phenyl)pyrido[2,3-d]pyrimidine-2,4(3H,8H)-dione] |  | ≥ 70
23 | O=c1nc2n(Cc3cnc(Cl)s3)cccc-2c(=O)n1-c1ccc(F)cc1Cl [Compound 237, 3-(2-chloro-4-fluorophenyl)-8-((2-chlorothiazol-5-yl)methyl)pyrido[2,3-d]pyrimidine-2,4(3H,8H)-dione] | ≥ 70 | 
24 | O=c1nc2n(Cc3cnc(Cl)nc3)cccc-2c(=O)n1-c1ccc(C2CC2)cc1 [Compound 245, 8-((2-chloropyrimidin-5-yl)methyl)-3-(4-cyclopropylphenyl)pyrido[2,3-d]pyrimidine-2,4(3H,8H)-dione] | ≥ 70 | 
25 | O=c1nc2n(Cc3cnc(Cl)s3)cccc-2c(=O)n1-c1cccc(Br)c1 [Compound 249, 3-(3-bromophenyl)-8-((2-chlorothiazol-5-yl)methyl)pyrido[2,3-d]pyrimidine-2,4(3H,8H)-dione] | ≥ 70 | 
